Drawing on ChEMBL document CHEMBL1250423, “Terpioside B, a difucosyl GSL from the marine sponge Terpios sp. is a potent inhibitor of NO release” (Bioorg Med Chem, 2010), this text covers inhibition for 1 compound.

In the assay the target is T1, Nitric oxide synthase, inducible (Mus musculus) (UniProt P29477).
T1 sequence (whole entry): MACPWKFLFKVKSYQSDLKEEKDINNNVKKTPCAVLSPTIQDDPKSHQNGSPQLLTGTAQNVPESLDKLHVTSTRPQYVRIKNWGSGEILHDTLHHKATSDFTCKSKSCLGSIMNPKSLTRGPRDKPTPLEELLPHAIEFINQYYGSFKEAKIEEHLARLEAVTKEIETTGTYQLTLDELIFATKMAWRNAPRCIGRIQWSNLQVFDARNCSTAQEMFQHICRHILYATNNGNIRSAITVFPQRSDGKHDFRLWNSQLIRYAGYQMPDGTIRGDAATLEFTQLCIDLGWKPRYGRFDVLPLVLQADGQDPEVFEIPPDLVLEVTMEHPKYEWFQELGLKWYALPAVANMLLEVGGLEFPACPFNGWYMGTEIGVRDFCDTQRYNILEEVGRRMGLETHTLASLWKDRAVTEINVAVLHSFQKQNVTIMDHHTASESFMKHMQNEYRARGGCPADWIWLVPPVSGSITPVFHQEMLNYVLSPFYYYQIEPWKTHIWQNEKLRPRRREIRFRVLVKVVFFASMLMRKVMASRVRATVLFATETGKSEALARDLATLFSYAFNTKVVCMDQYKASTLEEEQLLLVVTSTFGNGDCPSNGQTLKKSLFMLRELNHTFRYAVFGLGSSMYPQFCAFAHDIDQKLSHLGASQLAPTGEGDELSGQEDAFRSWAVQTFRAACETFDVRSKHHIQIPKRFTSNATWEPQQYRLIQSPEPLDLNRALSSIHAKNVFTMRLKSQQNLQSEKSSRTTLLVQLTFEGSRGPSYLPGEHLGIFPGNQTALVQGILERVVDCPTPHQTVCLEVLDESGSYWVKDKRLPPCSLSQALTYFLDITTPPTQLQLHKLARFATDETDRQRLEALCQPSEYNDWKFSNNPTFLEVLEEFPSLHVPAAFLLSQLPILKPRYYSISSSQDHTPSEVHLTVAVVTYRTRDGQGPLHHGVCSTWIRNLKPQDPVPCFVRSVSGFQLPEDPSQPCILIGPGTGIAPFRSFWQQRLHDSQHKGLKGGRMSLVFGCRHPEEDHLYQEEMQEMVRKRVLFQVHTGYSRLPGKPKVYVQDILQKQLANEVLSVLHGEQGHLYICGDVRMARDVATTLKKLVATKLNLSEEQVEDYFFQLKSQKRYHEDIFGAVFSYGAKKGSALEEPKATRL
Kind of assay: Inhibition of iNOS in mouse J774.2 cells assessed as reduction of LPS-induced nitric oxide production at 1 to 10 uM after 24 hrs by Griess reaction. The assay is classed as cell-based. In general terms: Nitrite, measured by Griess reagent, commonly stands in for NO production.

SMILES strings stand for the structures. Activity calls are given as the source filed them. The calls are words filed in the database; no cut-off is given here.

With `CCCCCCCCCCCCCCCCCCCCCC[C@@H](O)C(=O)N[C@@H](CO[C@@H]1O[C@H](CO)[C@@H](O)[C@H](O[C@@H]2O[C@H]([C@H](C)O)[C@@H](O)[C@@H]2O)[C@H]1O)[C@H](O)[C@H](O)CCCCCCCCCCCC(C)CC` (stereo partly specified), the inhibition entry is “Active”.
